Reference: patent US20050101783A1, “N-(heterocycle-methyl)alkylamine derivative, process for producing the same, and bactericide” (priority 2000, published 2005)

Legend:
cucumber gray mold = experiment: Preventive effect test of cucumber gray mold (wettable powder sprayed on potted cucumber, preventive value); format: in vivo; conditions: wettable powder suspended at 250 mg/l, sprayed on potted cucumber at 100 l/10 a; morbidity investigated 4th to 6th day after inoculation
Experimental: (Preventive Effect Test of Cucumber Gray Mold)
The wettable powders obtained by using each compound were diluted with water and were suspended at a predetermined concentration (250 mg/l) and the solution was sprayed over the first to second leaf stage-cucumber (variety: “Sagamihanpakufushinari”) cultivated by using a square plastic pot (size: 6.4 cm×6.4 cm) at a rate of 100 1/10 a.
After the sprayed leaves were air-dried, a paper disk where the solution of the spore of the gray mold suspended with water was impregnated was put on the aforementioned sprayed leaves, and the leaves were contracted in a glass greenhouse (temperature: 20 to 24° C. and relative humidity: 20 to 70 RH). The morbidity rate was investigated based on the following investigation standard on 4th to 6th day after the inoculation and the preventive value was calculated according to the following formula 2.

[1] = tested on: Erysiphe graminis f. sp tritici; experiment: Preventive effect test of wheat powdery mildew (wettable powder sprayed on potted wheat, preventive value); format: in vivo; conditions: wettable powder suspended at 250 mg/l, sprayed on potted wheat at 100 l/10 a; morbidity investigated 9th to 14th day after inoculation
Experimental: (Preventive Effect Test of Erysiphe graminis f. sp […])
The wettable powders obtained by using each compound were diluted with water and were suspended at a predetermined concentration (250 mg/l) and the solution was sprayed over the first to second leaf stage-wheat (variety. Agriculture and Forestry No. 64) cultivated by using a square plastic pot (size: 6.4 cm×6.4 cm) at a rate of 100 1/10 a (are).
After the sprayed leaves were air-dried, the suspension of the spore of Erysiphe graminis f. sp tritici germ sampled from the contracted leaves were sprayed and inoculated over the sprayed leaf after air-dried, the leaves were kept at 20 to 24° C. under a high-humidity condition for 24 hours, then, the leaves were subjected to still standing in a greenhouse (temperature: 20 to 24° C. and relative humidity: 20 to 70 RH). The morbidity rate was investigated based on the following investigation standard on 9th to 14th day after the inoculation and the preventive value was calculated according to the following formula 1.

Compound	Preventive Value (%) (cucumber gray mold)	Preventive Value (%) [1] [%]
CC(CCCc1ccc(C(C)(C)C)cc1)CN(C)Cc1ccc(Cl)nc1 (stereo not shown) [Compound I-52]	100	–
CN(Cc1ccc(Cl)nc1)CC(C)(C)Cc1cc(Cl)ccc1Cl [Compound I-32]	100	–
CN(Cc1ccc(Cl)nc1)CC(C)(C)Cc1ccc(Cl)cc1Cl [Compound I-31]	100	–
CN(Cc1ccc(Cl)nc1)CC(C)(C)Cc1cccc(OC(F)(F)C(F)F)c1 [Compound I-48]	100	–
CN(Cc1cccnc1)CC(C)(C)Cc1ccc(C(C)(C)C)cc1 [Compound I-16]	100	–
CN(Cc1ccc(Cl)nc1)CC(C)(C)CCc1ccc(C(C)(C)C)cc1 [Compound I-51]	100	–
CN(Cc1ccc(Cl)nc1)CC(C)(C)Cc1cccc(OC(F)(F)F)c1 [Compound I-46]	100	–
CC(C)Oc1cccc(CC(C)(C)CN(C)Cc2ccc(Cl)nc2)c1 [Compound I-27]	–	100
CN(Cc1ccc(Cl)nc1)CC(C)(C)Cc1ccc(C(C)(C)C)cc1 [Compound I-25]	100	–
CN(Cc1ccc(Cl)nc1)CC(C)(C)Cc1cccc(Oc2cccc(C(F)(F)F)c2)c1 [Compound I-40]	100	–
CC(CC1CCC(C(C)(C)C)CC1)CN(C)Cc1ccc(Cl)nc1 (stereo not shown) [Compound I-62, N-[3-(4-t-butylcyclohexyl)-2-methylpropyl]-6-chloro-N-methyl-3-pyridylmethylamine]	100	100
CN(Cc1cccnc1Cl)CC(C)(C)Cc1ccc(C(C)(C)C)cc1 [Compound I-20]	100	–
CN(Cc1ccc(Cl)nc1)CC(C)(C)Cc1cc(Cl)cc(Cl)c1 [Compound I-34]	100	–
CC(CCc1ccc(C(C)(C)C)cc1)CN(C)Cc1ccc(Cl)nc1 (stereo not shown) [Compound I-50]	100	–
CN(Cc1ccc(Cl)nc1)CC(C)(C)Cc1ccc(Oc2ccccc2)cc1 [Compound I-35]	100	–
CC(CCC1CCC(C(C)(C)C)CC1)CN(C)Cc1ccc(Cl)nc1 (stereo not shown) [Compound I-64]	100	–
CN(Cc1ccc(Cl)nc1)CC(C)(C)Cc1ccc(Cl)c(Cl)c1 [Compound I-33]	100	–
CN(Cc1ccc(Cl)nc1)CC(C)(C)CC1CCC(C(C)(C)C)CC1 (stereo not shown) [Compound I-63]	100	–
Cc1ncc(CN(C)CC(C)(C)Cc2ccc(C(C)(C)C)cc2)cn1 [Compound I-21]	100	–
CC(CCc1cccc(Oc2ccccc2)c1)CN(C)Cc1ccc(Cl)nc1 (stereo not shown) [Compound I-54]	100	–
CN(Cc1ccc(Cl)nc1)CC(C)(C)Cc1ccc(F)c(Oc2ccccc2)c1 [Compound I-38]	100	–
CN(Cc1ccc(Cl)nc1)CC(C)(C)Cc1ccc(Cl)cc1 [Compound I-28]	100	100
CC(CCCC1CCC(C(C)(C)C)CC1)CN(C)Cc1ccc(Cl)nc1 (stereo not shown) [Compound I-66]	100	–
CN(Cc1ccc(Cl)nc1)CC(C)(C)Cc1cccc(Oc2ccccc2)c1 [Compound I-36]	100	–
CN(Cc1ccc(Cl)nc1)CC(C)(C)Cc1cccc(Cl)c1 [Compound I-29]	100	–
Cc1ccc(Oc2cccc(CC(C)(C)CN(C)Cc3ccc(Cl)nc3)c2)cc1 [Compound I-39]	100	–
